Test results published in ChEMBL document CHEMBL1201862, “PubChem BioAssay data set” (2004).
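Method: 48-hour compound exposure of cells in 96-well plates, five concentrations, linear interpolation of endpoints. Abbreviation: GI50, concentration required for 50% inhibition of growth.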 Calls of active or inactive are those of the source. Cut-off read from the data, not from the text of the source: active = GI50 up to about 1.1 µM and inactive = higher.

Legend:
Assay in all cases: DTP human tumour cell line panel, 48 h
ACHN = test system: ACHN
SK-MEL-28 = test system: SK-MEL-28
A549 = test system: A549
UACC-257 = test system: UACC-257
Malme-3M = test system: Malme-3M
COLO 205 = test system: COLO 205
SW-620 = test system: SW-620
SF-539 = test system: SF-539
NCI-H460 = test system: NCI-H460
UACC-62 = test system: UACC-62
HOP-92 = test system: HOP-92
NCI-H23 = test system: NCI-H23
OVCAR-8 = test system: OVCAR-8
SF-295 = test system: SF-295
TK-10 = test system: TK-10
LOX IMVI = test system: LOX IMVI
MOLT-4 = test system: MOLT-4
IGROV-1 = test system: IGROV-1

Measured: GI50

CN(C)NC1=C([N+](=O)[O-])C=NN(c2ccccc2)C1
inactive: ACHN 1.73 µM | SK-MEL-28 1.81 µM | A549 2.1 µM | UACC-257 1.74 µM | Malme-3M 1.96 µM | COLO 205 1.79 µM | SW-620 1.89 µM | SF-539 1.89 µM | NCI-H460 2.09 µM | UACC-62 1.71 µM | HOP-92 2.02 µM | NCI-H23 1.87 µM | OVCAR-8 2.04 µM | SF-295 1.81 µM | TK-10 3.19 µM | LOX IMVI 1.59 µM | MOLT-4 2.09 µM | IGROV-1 2.19 µM

O=C(Nc1ccc(Br)cc1)C(=O)C(C(=O)c1ccccc1F)C1OC(=O)c2ccccc21 (stereo unspecified)
inactive: ACHN 38.5 µM | SK-MEL-28 18.7 µM | A549 39.7 µM | UACC-257 24.8 µM | Malme-3M 15.3 µM | COLO 205 20.4 µM | SW-620 31.9 µM | SF-539 20.1 µM | NCI-H460 31.8 µM | UACC-62 14 µM | HOP-92 27.7 µM | NCI-H23 17.9 µM | OVCAR-8 24.8 µM | TK-10 50.5 µM | LOX IMVI 18.4 µM | MOLT-4 25.3 µM | IGROV-1 31.4 µM

COc1ccc(N(C)Sc2ccccc2)cc1
inactive: SK-MEL-28 55.2 µM | A549 39.4 µM | UACC-257 37 µM | Malme-3M > 100 µM | COLO 205 > 100 µM | SW-620 43.7 µM | SF-539 20.4 µM | NCI-H460 74.5 µM | UACC-62 34.7 µM | HOP-92 79.8 µM | NCI-H23 83.4 µM | OVCAR-8 49.9 µM | SF-295 55.1 µM | TK-10 > 100 µM | LOX IMVI 31.1 µM | MOLT-4 13.1 µM | IGROV-1 19.9 µM

C=C=C(C(=O)OC)[S+]([O-])c1ccc([N+](=O)[O-])cc1[N+](=O)[O-] (stereo unspecified)
inactive: ACHN 37.2 µM | SK-MEL-28 34.7 µM | A549 52.7 µM | UACC-257 34.9 µM | Malme-3M > 56.1 µM | COLO 205 23.5 µM | SW-620 14.5 µM | SF-539 26.1 µM | NCI-H460 > 66.7 µM | UACC-62 28.2 µM | HOP-92 18.6 µM | NCI-H23 53.8 µM | OVCAR-8 25.2 µM | SF-295 > 92.7 µM | TK-10 46 µM | LOX IMVI 21.5 µM | MOLT-4 20.7 µM | IGROV-1 > 69.8 µM

COc1ccc(OC)c(NC(=O)CCC/C(CC(=O)c2ccc(O)c(OC)c2)=N\NC(=O)C[N+](C)(C)C)c1
inactive: ACHN > 100 µM | SK-MEL-28 > 100 µM | A549 > 100 µM | UACC-257 > 100 µM | Malme-3M > 100 µM | COLO 205 > 100 µM | SW-620 > 100 µM | SF-539 > 100 µM | NCI-H460 > 100 µM | UACC-62 > 100 µM | HOP-92 > 100 µM | NCI-H23 > 100 µM | OVCAR-8 > 100 µM | SF-295 > 100 µM | TK-10 > 100 µM | LOX IMVI > 100 µM | MOLT-4 > 100 µM | IGROV-1 > 100 µM

COCOCCCCCO[Si](C)(C)C(C)(C)C
inactive: ACHN 14.4 µM | SK-MEL-28 35.1 µM | A549 19.5 µM | UACC-257 16.5 µM | Malme-3M 18.2 µM | COLO 205 19 µM | SW-620 17.3 µM | SF-539 19.1 µM | NCI-H460 19.6 µM | UACC-62 25.3 µM | HOP-92 17.7 µM | NCI-H23 17.2 µM | OVCAR-8 19.5 µM | SF-295 14.8 µM | TK-10 33 µM | LOX IMVI 16.5 µM | MOLT-4 16.1 µM | IGROV-1 32.6 µM

O=C(O)/C=C\C(=O)c1ccc(Cl)cc1
inactive: ACHN 21.3 µM | SK-MEL-28 18.7 µM | A549 > 100 µM | UACC-257 20.1 µM | Malme-3M 18.9 µM | COLO 205 19.6 µM | SW-620 24 µM | SF-539 25.1 µM | NCI-H460 > 100 µM | UACC-62 29.9 µM | HOP-92 24.5 µM | NCI-H23 31.8 µM | OVCAR-8 > 74.6 µM | SF-295 > 100 µM | TK-10 40.5 µM | LOX IMVI 24.9 µM | MOLT-4 24.7 µM | IGROV-1 > 70.1 µM

O=C(c1ccc(Cl)cc1)c1ccc(OCCCOc2ccc(C(=O)c3ccc(Cl)cc3)cc2)cc1
inactive: ACHN > 100 µM | SK-MEL-28 > 100 µM | A549 > 100 µM | UACC-257 > 100 µM | Malme-3M > 100 µM | COLO 205 > 100 µM | SW-620 > 100 µM | SF-539 > 100 µM | NCI-H460 > 100 µM | UACC-62 > 100 µM | HOP-92 78.9 µM | NCI-H23 > 100 µM | OVCAR-8 > 100 µM | SF-295 > 100 µM | TK-10 > 100 µM | LOX IMVI > 100 µM | MOLT-4 > 100 µM | IGROV-1 > 100 µM

C#Cc1cccc(N2C(=O)CC(=P(c3ccccc3)(c3ccccc3)c3ccccc3)C2=O)c1
inactive: ACHN > 100 µM | SK-MEL-28 81.3 µM | A549 70 µM | UACC-257 51.4 µM | Malme-3M 80 µM | COLO 205 44.9 µM | SW-620 54.6 µM | NCI-H460 97.5 µM | UACC-62 29.3 µM | NCI-H23 40.7 µM | OVCAR-8 > 100 µM | SF-295 > 100 µM | TK-10 > 100 µM | MOLT-4 51.8 µM

COc1ccc(C(=O)NCCC2=CCCCC2)cc1
inactive: ACHN > 100 µM | SK-MEL-28 > 100 µM | A549 > 100 µM | UACC-257 > 100 µM | Malme-3M > 100 µM | COLO 205 > 100 µM | SW-620 > 100 µM | SF-539 > 100 µM | NCI-H460 > 100 µM | UACC-62 > 100 µM | HOP-92 78.5 µM | NCI-H23 > 100 µM | OVCAR-8 > 100 µM | SF-295 > 100 µM | TK-10 > 100 µM | LOX IMVI > 100 µM | IGROV-1 > 100 µM

CCCCCC(=O)Nc1nc(O)c2[nH]cnc2n1
inactive: ACHN > 100 µM | A549 > 100 µM | UACC-257 > 100 µM | Malme-3M > 100 µM | COLO 205 > 100 µM | SW-620 > 100 µM | SF-539 > 100 µM | NCI-H460 > 100 µM | UACC-62 > 100 µM | HOP-92 > 100 µM | NCI-H23 > 100 µM | OVCAR-8 > 100 µM | SF-295 > 100 µM | TK-10 > 100 µM | MOLT-4 > 100 µM | IGROV-1 > 100 µM

CC12N=NN(c3ccc([N+](=O)[O-])cc3)C1(O)c1ccccc1C2=O (stereo unspecified)
inactive: ACHN 48.5 µM | A549 > 100 µM | UACC-257 > 100 µM | Malme-3M > 100 µM | COLO 205 > 100 µM | SW-620 > 100 µM | SF-539 70.1 µM | NCI-H460 > 100 µM | UACC-62 > 100 µM | NCI-H23 > 100 µM | OVCAR-8 > 100 µM | SF-295 > 100 µM | TK-10 > 100 µM | LOX IMVI > 100 µM | IGROV-1 > 100 µM

COC(=O)c1c(C)oc2ccc(OC(C)=O)cc12
inactive: ACHN > 100 µM | SK-MEL-28 > 100 µM | A549 > 100 µM | UACC-257 > 100 µM | Malme-3M > 100 µM | COLO 205 > 100 µM | SW-620 > 100 µM | SF-539 > 100 µM | NCI-H460 > 100 µM | UACC-62 97.7 µM | NCI-H23 > 100 µM | OVCAR-8 > 100 µM | SF-295 > 100 µM | TK-10 > 100 µM | LOX IMVI > 100 µM | MOLT-4 > 100 µM | IGROV-1 > 100 µM

CCn1c(CSc2nc(-c3ccccc3)c(-c3ccccc3)[nH]2)n[nH]c1=S
inactive: ACHN > 100 µM | SK-MEL-28 > 100 µM | A549 > 100 µM | UACC-257 > 100 µM | Malme-3M > 100 µM | COLO 205 > 100 µM | SF-539 > 100 µM | NCI-H460 > 100 µM | HOP-92 > 100 µM | NCI-H23 > 100 µM | OVCAR-8 > 100 µM | SF-295 > 100 µM | TK-10 > 100 µM | LOX IMVI > 100 µM | MOLT-4 > 100 µM | IGROV-1 > 100 µM

CN(C)CCNC(=O)c1cccc2c1nc(-c1ccccn1)c1ccccc12
inactive: ACHN 15.5 µM | SK-MEL-28 15.6 µM | A549 11.8 µM | UACC-257 16.7 µM | COLO 205 12.3 µM | SW-620 11.2 µM | SF-539 16.4 µM | NCI-H460 7.26 µM | UACC-62 17.1 µM | HOP-92 18.6 µM | NCI-H23 15.7 µM | OVCAR-8 16 µM | SF-295 17.6 µM | TK-10 > 10 µM | LOX IMVI > 10 µM | MOLT-4 3.87 µM | IGROV-1 16.1 µM

[O-][S+]1CSCS1 (stereo unspecified)
inactive: ACHN > 100 µM | SK-MEL-28 > 100 µM | A549 > 100 µM | UACC-257 > 100 µM | Malme-3M > 100 µM | COLO 205 > 100 µM | SW-620 > 100 µM | SF-539 > 100 µM | UACC-62 > 100 µM | HOP-92 > 100 µM | NCI-H23 > 100 µM | OVCAR-8 > 100 µM | SF-295 > 100 µM | TK-10 > 100 µM | LOX IMVI > 100 µM | MOLT-4 > 100 µM | IGROV-1 > 100 µM
